According to PubChem BioAssay (NCI):
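Dose response: 5 concentrations. Exposure: 48 h. Format: 96-well plates. Endpoint: linear interpolation; highest concentration if not reached. TGI denotes the concentration required for complete inhibition of growth.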 *1 amine or outer side, *2 acyl side, *3 side chain or, on linkers, in order; H or OH if unused. Where a SMILES comes first, the peptide text is derived from it. [ ]: non-standard residue; d: D form. The star is where a group is joined. X31 = CC(=O)N(C)SCC(N[*:1])C(=O)[*:2]; Cbz = O=C(OCc1ccccc1)*; Bn = c1ccc(C*)cc1; For = O=C*

Legend:
Assay in all cases: NCI anticancer screen, dose series, 48 h
SK-MEL-5 melanoma = system: SK-MEL-5 melanoma
PC-3 prostate = system: PC-3 prostate
HOP-92 NSCLC = system: HOP-92 NSCLC
HCT-116 colon = system: HCT-116 colon
ACHN renal = system: ACHN renal
EKVX NSCLC = system: EKVX NSCLC
OVCAR-5 ovarian = system: OVCAR-5 ovarian
RPMI-8226 leukemia = system: RPMI-8226 leukemia
KM12 colon = system: KM12 colon
SF-539 CNS = system: SF-539 CNS
SK-MEL-28 melanoma = system: SK-MEL-28 melanoma
HCC-2998 colon = system: HCC-2998 colon
SN12C renal = system: SN12C renal

Structure (SMILES) | TGI (SK-MEL-5 melanoma) [µM] | TGI (PC-3 prostate) [µM] | TGI (HOP-92 NSCLC) [µM] | TGI (HCT-116 colon) [µM] | TGI (ACHN renal) [µM] | TGI (EKVX NSCLC) [µM] | TGI (OVCAR-5 ovarian) [µM] | TGI (RPMI-8226 leukemia) [µM] | TGI (KM12 colon) [µM] | TGI (SF-539 CNS) [µM] | TGI (SK-MEL-28 melanoma) [µM] | TGI (HCC-2998 colon) [µM] | TGI (SN12C renal) [µM]
CC(=O)N(C)SCC(NC(=O)C(Cc1ccccc1)NC(=O)OCc1ccccc1)C(=O)NC(Cc1ccccc1)C(=O)NC(Cc1cn(C=O)c2ccccc12)C(=O)NC(CCCCNC(=O)OCc1ccccc1)C(=O)NC(C(=O)NC(CSN(C)C(C)=O)C(=O)NC(C(N)=O)C(C)OCc1ccccc1)C(C)OCc1ccccc1 (centres undefined) (Cbz-F[X31]FW(For)K(Cbz)T(Bn)[X31]T(Bn)-NH2; configuration not given here) | > 100 | > 100 | 56.6 | > 100 | > 100 | > 100 | > 100 | > 100 | > 100 | > 100 | > 100 | > 100 | > 100
C=CCNC(=O)NC(=O)CSC1=NNC2(C(=O)N1)c1ccccc1-c1ccccc12 | > 10 | > 10 | > 10 | > 10 | > 10 | > 10 | > 10 | > 10 | > 10 | > 10 | > 10 | > 10 | > 10
CCOc1cc(NC(C)=O)ccc1C(=O)NN1C(=O)C(Cl)C1c1ccccc1 (centres undefined) | 23.4 | 27.8 | 31.7 | 38.9 | 29.7 | 28.7 | 31.4 | 28.7 | 32.9 | 35.4 | 36.4 | 32.3 | 36.5
CC(=O)C(=C(c1ccccc1)c1ccccc1)c1ccccc1 | > 100 | > 100 | > 100 | > 100 | > 100 | 80.2 | > 100 | > 100 | > 100 | > 100 | > 100 | > 100 | > 100
COc1ccc(Nc2nnc(-c3nsc4ccccc34)s2)cc1 | > 100 | > 100 | 41.8 | 45.2 | > 100 | > 100 | > 100 | > 100 | > 100 | > 100 | > 100 | > 100 | > 100
CC1=NN(C(=O)c2ccccc2O)C(=O)/C1=C/c1ccco1 | 9.19 | 46 | > 71.4 | > 100 | > 100 | 44.2 | > 100 | > 92.6 | > 100 | 10.7 | > 100 | > 100 | > 39.3
[N-]=[N+]=Nc1ccccc1C(=O)N1C(=O)c2ccccc2C(=O)N(C(=O)c2ccccc2N=[N+]=[N-])c2ccccc21 | > 100 | > 100 | 83.5 | > 100 | > 100 | > 100 | > 100 | > 100 | > 100 | > 100 | > 100 | > 100 | > 100
CC(C)Cn1cnc2c(NCC(C)O)nc3ccccc3c21 (centres undefined) | > 100 | > 100 | > 100 | > 100 | > 100 | > 100 | > 100 | > 100 | > 100 | > 100 | > 100 | > 100 | > 100
